Assays:
[1] = target: T1, human CD73 recombinant protein (Homo sapiens, UniProt P21589); assay: Enzyme assay, CD73 (Malachite green kit); format: biochemical; settings: AMP added, incubation 30 minutes
T1 construct: made in house
T1 sequence (P21589 27-549): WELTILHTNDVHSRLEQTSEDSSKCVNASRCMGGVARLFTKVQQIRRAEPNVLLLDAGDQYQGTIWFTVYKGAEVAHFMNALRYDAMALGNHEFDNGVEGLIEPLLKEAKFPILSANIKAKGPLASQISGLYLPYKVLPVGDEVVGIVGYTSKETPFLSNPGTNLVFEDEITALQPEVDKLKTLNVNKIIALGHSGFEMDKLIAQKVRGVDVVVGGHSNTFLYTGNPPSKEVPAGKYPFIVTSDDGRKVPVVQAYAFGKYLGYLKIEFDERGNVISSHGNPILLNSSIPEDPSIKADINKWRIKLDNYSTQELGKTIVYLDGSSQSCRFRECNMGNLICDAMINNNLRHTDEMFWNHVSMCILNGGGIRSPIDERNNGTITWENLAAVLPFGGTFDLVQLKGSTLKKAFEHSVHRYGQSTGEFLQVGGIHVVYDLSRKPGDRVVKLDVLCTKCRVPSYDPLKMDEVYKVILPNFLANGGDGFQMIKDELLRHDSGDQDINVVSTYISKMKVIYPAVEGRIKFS
Description: (§1) Referring to a method described in a reference document [Front Pharmacol. 2018 Mar. 1; 9:153], an enzyme assay was performed. Each of human CD73 and CD39 recombinant proteins was produced and then purified and isolated, and used in an enzyme assay. A buffer was basically 25 mM Tris, 5 mM MgCl2, pH 7.5 as an assay buffer, and for assay, human CD73 and CD39 recombinant protein were diluted at an appropriate concentration, respectively, in the assay buffer, adenosine monophosphate (AMP) (Sigma, Catalog #A1752) at an appropriate concentration was added, and then incubation was performed for 30 minutes. At the time, the azolopyrimidine heterocyclic compounds of the present invention were treated for each concentration and incubated together, thereby measuring a degree of inhibiting activity of CD73 or CD39.

[2] = target: T2, human CD39 recombinant protein (Homo sapiens, UniProt P49961); assay: Enzyme assay, CD39 (Malachite green kit); format: biochemical; settings: AMP added, incubation 30 minutes
T2 construct: made in house
T2 sequence (P49961 1-510): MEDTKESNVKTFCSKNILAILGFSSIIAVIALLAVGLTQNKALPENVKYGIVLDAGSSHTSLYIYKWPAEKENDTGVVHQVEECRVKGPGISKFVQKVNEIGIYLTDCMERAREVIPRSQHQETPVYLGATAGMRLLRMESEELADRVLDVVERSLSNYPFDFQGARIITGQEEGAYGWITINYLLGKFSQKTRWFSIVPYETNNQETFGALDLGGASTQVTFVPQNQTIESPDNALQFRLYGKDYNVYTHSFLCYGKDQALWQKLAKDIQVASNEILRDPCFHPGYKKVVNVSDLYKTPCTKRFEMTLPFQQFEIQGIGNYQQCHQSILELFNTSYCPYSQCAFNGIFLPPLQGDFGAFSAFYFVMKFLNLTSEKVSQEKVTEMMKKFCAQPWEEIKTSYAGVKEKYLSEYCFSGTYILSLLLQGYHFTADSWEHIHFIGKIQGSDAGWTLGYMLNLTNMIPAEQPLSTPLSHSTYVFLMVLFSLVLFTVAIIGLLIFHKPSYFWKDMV
Description: as §1

Row | Structure (SMILES) | IC50 [1] | IC50 [2]
1 | CN(Cc1cccc(F)c1)c1ncnc2c1ncn2[C@@H]1O[C@H](CO[Si](c2ccccc2)(c2ccccc2)c2ccccc2)[C@@H](O)[C@H]1O [Compound 21, (2R,3R,4S,5R)-2-(6-((3-fluorobenzyl)(methyl)amino)-9H-purin-9-yl)-5-(((triphenylsilyl)oxy)methyl)tetrahydrofuran-3,4-diol] | < 1 µM | 1.1 to 5 µM
2 | O[C@@H]1[C@H](O)[C@@H](COC(c2ccccc2)(c2ccccc2)c2ccccc2)O[C@H]1n1cnc2c(Cl)ncnc21 [Compound 22, (2R,3R,4S,5R)-2-(6-chloro-9H-purin-9-yl)-5-((trityloxy)methyl)tetrahydrofuran-3,4-diol] | < 1 µM | 5.1 to 15 µM
3 | CN(Cc1cccc(F)c1)c1ncnc2c1ncn2[C@@H]1O[C@H](CO[Si](C)(C)C(C)(C)C)[C@@H](O)[C@H]1O [Compound 20, (2R,3S,4R,5R)-2-(((tert-butyldimethylsilyl)oxy)methyl)-5-(6-((3-fluorobenzyl)(methyl)amino)-9H-purin-9-yl)tetrahydrofuran-3,4-diol] | 1.1 to 5 µM | 1.1 to 5 µM
4 | CN(Cc1cccc(F)c1)c1ncnc2c1ncn2[C@@H]1O[C@H](COCc2ccc3ccccc3c2Br)[C@@H](O)[C@H]1O [Compound 19, (2R,3S,4R,5R)-2-(((1-bromonaphthalen-2-yl)methoxy)methyl)-5-(6-((3-fluorobenzyl)(methyl)amino)-9H-purin-9-yl)tetrahydrofuran-3,4-diol] | 1.1 to 5 µM | 1.1 to 5 µM
5 | CN(Cc1cccc(F)c1)c1ncnc2c1ncn2[C@@H]1O[C@H](CO[Si](c2ccccc2)(c2ccccc2)C(C)(C)C)[C@@H](O)[C@H]1O [Compound 8, (2R,3S,4R,5R)-2-(((tert-butyldiphenylsilyl)oxy)methyl)-5-(6-((3-fluorobenzyl)(methyl)amino)-9H-purin-9-yl)tetrahydrofuran-3,4-diol] | < 1 µM | 1.1 to 5 µM
6 | COc1ccc(C(OC[C@H]2O[C@@H](n3cnc4c(N(C)Cc5cccc(F)c5)ncnc43)[C@H](O)[C@@H]2O)(c2ccccc2)c2ccc(OC)cc2)cc1 [Compound 25, (2R,3S,4R,5R)-2-((bis(4-methoxyphenyl) (phenyl)methoxy)methyl)-5-(6-((3-fluorobenzyl)(methyl)amino)-9H-purin-9-yl)tetrahydrofuran-3,4-diol] | < 1 µM | < 1 µM
7 | CN(Cc1cccc(F)c1)c1ncnc2c1ncn2[C@@H]1O[C@H](COCc2ccc(S(F)(F)(F)(F)F)cc2)[C@@H](O)[C@H]1O [Compound 15, (2R,3R,4S,5R)-2-(6-((3-fluorobenzyl)(methyl)amino)-9H-purin-9-yl)-5-(((4-(pentafluorothio)benzyl)oxy)methyl)tetrahydrofuran-3,4-diol] | 1.1 to 5 µM | 1.1 to 5 µM
8 | CN(Cc1cccc(F)c1)c1ncnc2c1ncn2[C@@H]1O[C@H](COCc2cc(C(F)(F)F)cc(C(F)(F)F)c2)[C@@H](O)[C@H]1O [Compound 14, (2R,3S,4R,5R)-2-(((3,5-bis(trifluoromethyl)benzyl)oxy)methyl)-5-(6-((3-fluorobenzyl)(methyl)amino)-9H-purin-9-yl)tetrahydrofuran-3,4-diol] | < 1 µM | 5.1 to 15 µM
9 | COc1ccc(C(OC[C@H]2O[C@@H](n3cnc4c(Cl)ncnc43)[C@H](O)[C@@H]2O)(c2ccccc2)c2ccc(OC)cc2)cc1 [Compound 23, (2R,3S,4R,5R)-2-((bis(4-methoxyphenyl) (phenyl)methoxy)methyl)-5-(6-chloro-9H-purin-9-yl)tetrahydrofuran-3,4-diol] | 1.1 to 5 µM | ≥ 30 µM
10 | CN(Cc1cccc(F)c1)c1ncnc2c1ncn2[C@@H]1O[C@H](COC(c2ccccc2)(c2ccccc2)c2ccccc2)[C@@H](O)[C@H]1O [Compound 24, (2R,3R,4S,5R)-2-(6-((3-fluorobenzyl)(methyl)amino)-9H-purin-9-yl)-5-((trityloxy)methyl)tetrahydrofuran-3,4-diol] | < 1 µM | 1.1 to 5 µM

The next lines start with the values.

Row | IC50 [1] | IC50 [2] | Structure (SMILES)
11 | 5.1 to 15 µM |  | CN(Cc1cccc(F)c1)c1ncnc2c1ncn2[C@@H]1O[C@H](COC(=O)Nc2ccccc2)[C@@H](O)[C@H]1O [Compound 6, ((2R,3S,4R,5R)-5-(6-((3-fluorobenzyl)(methyl)amino)-9H-purin-9-yl)-3,4-dihydroxytetrahydrofuran-2-yl)methyl phenylcarbamate]
12 | 1.1 to 5 µM | 15.1 to 30 µM | CN(Cc1cccc(F)c1)c1ncnc2c1ncn2[C@@H]1O[C@H](COCc2ccc3ccccc3c2)[C@@H](O)[C@H]1O [Compound 18, (2R,3R,4S,5R)-2-(6-((3-fluorobenzyl)(methyl)amino)-9H-purin-9-yl)-5-((naphthalen-2-ylmethoxy)methyl)tetrahydrofuran-3,4-diol]
13 | 15.1 to 30 µM |  | CN(Cc1cccc(F)c1)c1ncnc2c1ncn2[C@@H]1O[C@H](COC(=O)Nc2ccccc2)[C@H]2OC(C)(C)O[C@H]21 [Compound 3, ((3aR,4R,6R,6aR)-6-(6-((3-fluorobenzyl)(methyl)amino)-9H-purin-9-yl)-2,2-dimethyltetrahydrofuro[3,4-d][1,3]dioxol-4-yl)methyl phenylcarbamate]
14 | ≥ 30 µM |  | CN(Cc1cccc(F)c1)c1ncnc2c1ncn2[C@@H]1O[C@H](CO[Si](c2ccccc2)(c2ccccc2)C(C)(C)C)[C@H]2OC(C)(C)O[C@H]21 [Compound 1, 9-((3aR,4R,6R,6aR)-6-(((tert-butyldiphenylsilyl)oxy)methyl)-2,2-dimethyltetrahydrofuro[3,4-d][1,3]dioxol-4-yl)-N-(3-fluorobenzyl)-N-methyl-9H-purin-6-amine]
15 | 1.1 to 5 µM | 1.1 to 5 µM | CN(Cc1cccc(F)c1)c1ncnc2c1ncn2[C@@H]1O[C@H](COCc2ccc3ccccc3c2Br)[C@H]2OC(C)(C)O[C@H]21 [Compound 17, 9-((3aR,4R,6R,6aR)-6-(((1-bromonaphthalen-2-yl)methoxy)methyl)-2,2-dimethyltetrahydrofuro[3,4-d][1,3]dioxol-4-yl)-N-(3-fluorobenzyl)-N-methyl-9H-purin-6-amine]
16 | 5.1 to 15 µM |  | CN(Cc1cccc(F)c1)c1ncnc2c1ncn2[C@@H]1O[C@H](COC(=O)c2ccccc2)[C@@H](O)[C@H]1O [Compound 9, ((2R,3S,4R,5R)-5-(6-((3-fluorobenzyl)(methyl)amino)-9H-purin-9-yl)-3,4-dihydroxytetrahydrofuran-2-yl)methyl benzoate]
17 | 1.1 to 5 µM | 5.1 to 15 µM | CN(Cc1cccc(F)c1)c1ncnc2c1ncn2[C@@H]1O[C@H](COCc2ccc3ccccc3c2)[C@H]2OC(C)(C)O[C@H]21 [Compound 16, 9-((3aR,4R,6R,6aR)-2,2-dimethyl-6-((naphthalen-2-ylmethoxy)methyl)tetrahydrofuro[3,4-d][1,3]dioxol-4-yl)-N-(3-fluorobenzyl)-N-methyl-9H-purin-6-amine]
18 | 1.1 to 5 µM | ≥ 30 µM | CN(Cc1cccc(F)c1)c1ncnc2c1ncn2[C@@H]1O[C@H](COC(=S)Nc2ccccc2)[C@@H](O)[C@H]1O [Compound 7, O-(((2R,3S,4R,5R)-5-(6-((3-fluorobenzyl)(methyl)amino)-9H-purin-9-yl)-3,4-dihydroxytetrahydrofuran-2-yl)methyl) phenylcarbamothioate]
19 | < 1 µM | 1.1 to 5 µM | CN(Cc1cccc(F)c1)c1ncnc2c1ncn2[C@@H]1O[C@H](COCc2ccc(-c3ccccc3)cc2)[C@@H](O)[C@H]1O [Compound 13, (2R,3S,4R,5R)-2-(([1,1′-biphenyl]-4-ylmethoxy)methyl)-5-(6-((3-fluorobenzyl)(methyl)amino)-9H-purin-9-yl)tetrahydrofuran-3,4-diol]
20 | 15.1 to 30 µM |  | CN(Cc1cccc(F)c1)c1ncnc2c1ncn2[C@@H]1O[C@H](COC(=S)Nc2ccccc2)[C@H]2OC(C)(C)O[C@H]21 [Compound 4, O-(((3aR,4R,6R,6aR)-6-(6-((3-fluorobenzyl)(methyl)amino)-9H-purin-9-yl)-2,2-dimethyltetrahydrofuro[3,4-d][1,3]dioxol-4-yl)methyl) phenylcarbamothioate]

— patent US20220160747A1, “PHARMACEUTICAL COMPOSITION COMPRISING NOVEL AZOLOPYRIMIDINE HETEROCYCLIC COMPOUND AS ACTIVE INGREDIENT” (KOREA RESEARCH INSTITUTE OF CHEMICAL TECHNOLOGY, priority 2019, published 2022)
